According to patent EP3822285A1, “VARIANT NISIN PEPTIDES” (University College Cork-National University of Ireland, Cork, priority 2019, dated 2021):
Values after ≈ are worked out from the molar mass of the structure shown. Values joined by “and” are separate entries in the source; they are usually repeats but may differ in a detail not shown here. Equal values may be shown once. Marks after values point to notes of the source that are not given here.

Legend:
Assay type in all cases: cell-based
[1] = system: Thermus thermophilus HB27; assay: Agar diffusion assay with cell free supernatant of producing strains; details: zone diameter relative to Nisin A wild type (100)
Method: (§1) Agar diffusion assays were carried out in triplicate using nisin producing and indicator (T. thermophilus HB27 and T. scotoductus Se-1) strains. Both the producer and indicator strains were cultured as per conditions described above. One ml of overnight culture of indicators were added to 50ml of molten Castenholz agar, briefly swirled and poured. Wells were made using sterile glass pipette. To generate cell free supernatant from nisin producing strains, 10 mls of overnight cultures of the strains were centrifuged at 950g for 20 mins. The cell free supernatant was transferred to a sterile tube. 50 µl of cell free supernatant was added to wells described above. Plates were incubated at 55°C for 3 days and the zone of clearance measured.
(§2) The cell free supernatant of nisin A and nisin variant producing L. lactis was used to determine the bioactivity of these lantibiotics against T. thermophilus HB27 and T. scotoductus SE-1 using agar diffusion assays, with the zone of clearance representing the bioactivity of the producing strain (i.e., representing a combination of the amount of the peptide produced and the specific activity of that peptide). […] Among the variants tested were those with altered N-terminal domains. The N-terminal domain of nisin is important for binding with the pyrophosphate moiety of lipid II to mediate pore formation in the cell membrane. Lysine (K) at position 12, which serves as a small flexible region between ring B and C, and is one of among the 5 positively charged residues (K12, K22, K34, H27, […]) of nisin A that contributes to its cationic nature and its attraction to the cell envelope.

Thermus scotoductus SE-1 = assay: as above; details: zone diameter relative to Nisin A wild type (100)
Method: as §1, §2

T. scotoductus SE-1 = assay: Minimum inhibitory concentration assay (Thermus); details: for MIC: pure peptide, mean of triplicate assays
Method: (§3) Minimum inhibitory concentration (MIC) determinations for gram negative Thermus strains were carried out in triplicate in round bottom microtitre plates (Corning). 96 well microtitre plates were pre-treated with bovine serum albumin (BSA) prior to addition of the peptides. Briefly, to each well of the microtire plates 200 µl of d.H2O (filtered with 0.2 µm filter) containing 1% (w/w) BSA was added and incubated at 37°C for 30 mins. The wells were washed with 200 µl of IX phosphate buffered saline (PBS) for 2 times after removing 1% BSA d.H2O. 100 µl of growth media, i.e., Castenholz, was added to each well. […] Target strains were grown overnight as per conditions mention above, 0.5 ml of overnight was subcultured in to 10 mls of fresh Castenholz medium and allowed to grow to an OD600 of ∼0.5. 20µl of this subculture was added to 980µl of media, 150µl of this dilution added to 14.85 ml of growth media. 100µl of this dilution added to each well resulting in a final inoculum of ∼10^5 cfu/ml in 200µl. The plates were incubated at 55° C for 3 days and the MIC was determined as the lowest concentration at which no growth was visible.
(§4) The bioactivity of cell-free supernatant can be influenced by altered diffusion rates, solubility, production or specific activity. To determine to what extent, if any, the bioactivity noted above is due to increased specific activity, nisin A (control) and the derivatives were purified and their molecular weights confirmed by MALDI TOF mass spectrometry (Table: 6) (Figure: 4). These peptides were used to perform minimum inhibitory concentration assays against six Thermus strains, i.e., T. thermophilus HB27, T. scotoductus SE-1, T. rehai, T. oshimai, T. aquaticus and T. brockianus.

T. brockianus = assay: Minimum inhibitory concentration assay (Thermus); details: pure peptide, mean of triplicate assays
Method: as §3, §4

T. rehai = assay: Minimum inhibitory concentration assay (Thermus); details: for MIC: pure peptide, mean of triplicate assays
Method: as §3, §4

T. aquaticus = assay: Minimum inhibitory concentration assay (Thermus); details: for MIC: pure peptide, mean of triplicate assays
Method: as §3, §4

T. oshimai = assay: Minimum inhibitory concentration assay (Thermus); details: pure peptide, mean of triplicate assays
Method: as §3, §4

T. thermophilus HB27 = assay: Minimum inhibitory concentration assay (Thermus); details: for MIC: pure peptide, mean of triplicate assays
Method: as §3, §4

| Compound | % difference [1] | % of wild type (Thermus scotoductus SE-1) | fold better activity than nisin A (T. scotoductus SE-1) | MIC (T. scotoductus SE-1) | MIC (T. brockianus) | fold better activity than nisin A (T. rehai) | MIC (T. rehai) | MIC (T. aquaticus) | MIC (T. oshimai) | fold better activity than nisin A (T. thermophilus HB27) | MIC (T. thermophilus HB27) | fold better activity than nisin A (T. aquaticus) |
| --- | --- | --- | --- | --- | --- | --- | --- | --- | --- | --- | --- | --- |
| C=C(NC(=O)[C@@H](NC(=O)[C@H](Cc1c[nH]cn1)NC(=O)[C@@H](NC(=O)[C@H](CO)NC(=O)[C@@H]1CS[C@@H](C)[C@H]2NC(=O)[C@H](C)NC(=O)[C@H](NC(=O)[C@H](CCCCN)NC(=O)[C@H](CCSC)NC(=O)[C@H](CC(N)=O)NC(=O)[C@@H]3CS[C@@H](C)[C@@H](NC(=O)[C@@H](NC(=O)[C@@H]4CS[C@@H](C)[C@@H](NC(=O)[C@@H]5CSC[C@@H](NC(=O)/C(=C/C)NC(=O)[C@@H](N)[C@@H](C)CC)C(=O)N[C@@H]([C@@H](C)CC)C(=O)NC(=C)C(=O)N[C@@H](CC(C)C)C(=O)N5)C(=O)N5CCC[C@H]5C(=O)NCC(=O)N4)C(C)C)C(=O)NCC(=O)N[C@@H](C)C(=O)N[C@@H](CC(C)C)C(=O)N[C@@H](CCSC)C(=O)NCC(=O)N3)[C@H](C)SC[C@H](NC2=O)C(=O)N[C@@H](Cc2c[nH]cn2)C(=O)N1)[C@@H](C)CC)C(C)C)C(=O)N[C@@H](CCCCN)C(=O)O [K12V] | 145* (0.004) % | 125* (0.04) % | 2 fold | 103.9 µg/L and 0.0312 µM | 0.0156 µM (≈ 0.0519 µg/mL) | 2 fold | 0.0039 µM (≈ 0.013 µg/mL) | 0.0156 µM (≈ 0.0519 µg/mL) | 0.0156 µM (≈ 0.0519 µg/mL) | 2 fold | 12.9 µg/L and 0.0039 µM |  |
| C=C(NC(=O)[C@@H](NC(=O)[C@H](Cc1c[nH]cn1)NC(=O)[C@@H](NC(=O)[C@H](CO)NC(=O)[C@@H]1CS[C@@H](C)[C@H]2NC(=O)[C@H](C)NC(=O)[C@H](NC(=O)[C@H](CCCCN)NC(=O)[C@H](CCSC)NC(=O)[C@H](CC(N)=O)NC(=O)[C@@H]3CS[C@@H](C)[C@@H](NC(=O)[C@H](Cc4ccc(O)cc4)NC(=O)[C@@H]4CS[C@@H](C)[C@@H](NC(=O)[C@@H]5CSC[C@@H](NC(=O)/C(=C/C)NC(=O)[C@@H](N)[C@@H](C)CC)C(=O)N[C@@H]([C@@H](C)CC)C(=O)NC(=C)C(=O)N[C@@H](CC(C)C)C(=O)N5)C(=O)N5CCC[C@H]5C(=O)NCC(=O)N4)C(=O)NCC(=O)N[C@@H](C)C(=O)N[C@@H](CC(C)C)C(=O)N[C@@H](CCSC)C(=O)NCC(=O)N3)[C@H](C)SC[C@H](NC2=O)C(=O)N[C@@H](Cc2c[nH]cn2)C(=O)N1)[C@@H](C)CC)C(C)C)C(=O)N[C@@H](CCCCN)C(=O)O [K12Y] | 94% | 74% |  | 0.625 µM (≈ 2.12 µg/mL) | 0.0312 µM (≈ 0.106 µg/mL) | 4 fold | 6.6 µg/L and 0.00195 µM | 26.4 µg/L and 0.0078 µM | 0.0156 µM (≈ 0.0529 µg/mL) |  | 0.0156 µM (≈ 0.0529 µg/mL) | 2 fold |
| C=C(NC(=O)[C@@H](NC(=O)[C@H](Cc1c[nH]cn1)NC(=O)[C@@H](NC(=O)[C@H](CO)NC(=O)[C@@H]1CS[C@@H](C)[C@H]2NC(=O)[C@H](C)NC(=O)[C@H](NC(=O)[C@H](CCCCN)NC(=O)[C@H](Cc3ccccc3)NC(=O)[C@H](CC(N)=O)NC(=O)[C@@H]3CS[C@@H](C)[C@@H](NC(=O)[C@H](CCCCN)NC(=O)[C@@H]4CS[C@@H](C)[C@@H](NC(=O)[C@@H]5CSC[C@@H](NC(=O)/C(=C/C)NC(=O)[C@@H](N)[C@@H](C)CC)C(=O)N[C@@H]([C@@H](C)CC)C(=O)NC(=C)C(=O)N[C@@H](CC(C)C)C(=O)N5)C(=O)N5CCC[C@H]5C(=O)NCC(=O)N4)C(=O)NCC(=O)N[C@@H](C)C(=O)N[C@@H](CC(C)C)C(=O)N[C@@H](CCSC)C(=O)NCC(=O)N3)[C@H](C)SC[C@H](NC2=O)C(=O)N[C@@H](Cc2c[nH]cn2)C(=O)N1)[C@@H](C)CC)C(C)C)C(=O)N[C@@H](CCCCN)C(=O)O [M21F] | 125% | 106% |  | 0.0312 µM (≈ 0.105 µg/mL) | 0.0078 µM (≈ 0.0263 µg/mL) |  | 0.000975 µM (≈ 0.00329 µg/mL) | 0.0039 µM (≈ 0.0131 µg/mL) | 0.00195 µM (≈ 0.00657 µg/mL) |  | 0.0039 µM (≈ 0.0131 µg/mL) |  |
| C=C(NC(=O)[C@@H](NC(=O)[C@H](Cc1c[nH]cn1)NC(=O)[C@@H](NC(=O)[C@H](CO)NC(=O)[C@@H]1CS[C@@H](C)[C@H]2NC(=O)[C@H](C)NC(=O)[C@H](NC(=O)[C@H](CCCCN)NC(=O)[C@H](CCC(N)=O)NC(=O)[C@H](CC(N)=O)NC(=O)[C@@H]3CS[C@@H](C)[C@@H](NC(=O)[C@H](CCCCN)NC(=O)[C@@H]4CS[C@@H](C)[C@@H](NC(=O)[C@@H]5CSC[C@@H](NC(=O)/C(=C/C)NC(=O)[C@@H](N)[C@@H](C)CC)C(=O)N[C@@H]([C@@H](C)CC)C(=O)NC(=C)C(=O)N[C@@H](CC(C)C)C(=O)N5)C(=O)N5CCC[C@H]5C(=O)NCC(=O)N4)C(=O)NCC(=O)N[C@@H](C)C(=O)N[C@@H](CC(C)C)C(=O)N[C@@H](CCSC)C(=O)NCC(=O)N3)[C@H](C)SC[C@H](NC2=O)C(=O)N[C@@H](Cc2c[nH]cn2)C(=O)N1)[C@@H](C)CC)C(C)C)C(=O)N[C@@H](CCCCN)C(=O)O [M21Q] | 123% | 124* (0.05) % |  | 0.0625 µM (≈ 0.209 µg/mL) | 0.0156 µM (≈ 0.0523 µg/mL) |  | 13 µg/L and 0.0039 µM | 26.1 µg/L and 0.0078 µM | 6.5 µg/L and 0.00195 µM |  | 0.0039 µM (≈ 0.0131 µg/mL) |  |
| C=C(NC(=O)[C@@H](NC(=O)[C@H](Cc1c[nH]cn1)NC(=O)[C@@H](NC(=O)[C@H](CO)NC(=O)[C@@H]1CS[C@@H](C)[C@H]2NC(=O)[C@H](C)NC(=O)[C@H](NC(=O)[C@H](CCCCN)NC(=O)[C@H](Cc3ccc(O)cc3)NC(=O)[C@H](CC(N)=O)NC(=O)[C@@H]3CS[C@@H](C)[C@@H](NC(=O)[C@H](CCCCN)NC(=O)[C@@H]4CS[C@@H](C)[C@@H](NC(=O)[C@@H]5CSC[C@@H](NC(=O)/C(=C/C)NC(=O)[C@@H](N)[C@@H](C)CC)C(=O)N[C@@H]([C@@H](C)CC)C(=O)NC(=C)C(=O)N[C@@H](CC(C)C)C(=O)N5)C(=O)N5CCC[C@H]5C(=O)NCC(=O)N4)C(=O)NCC(=O)N[C@@H](C)C(=O)N[C@@H](CC(C)C)C(=O)N[C@@H](CCSC)C(=O)NCC(=O)N3)[C@H](C)SC[C@H](NC2=O)C(=O)N[C@@H](Cc2c[nH]cn2)C(=O)N1)[C@@H](C)CC)C(C)C)C(=O)N[C@@H](CCCCN)C(=O)O [M21Y] | 115% | 115% |  | 0.0625 µM (≈ 0.212 µg/mL) | 0.0312 µM (≈ 0.106 µg/mL) |  | 13.2 µg/L and 0.0039 µM | 6.6 µg/L and 0.00195 µM | 13.2 µg/L and 0.0039 µM | two-fold | 13.2 µg/L and 0.0039 µM |  |
| C=C(NC(=O)[C@@H](NC(=O)[C@H](Cc1c[nH]cn1)NC(=O)[C@@H](NC(=O)[C@H](CO)NC(=O)[C@@H]1CS[C@@H](C)[C@H]2NC(=O)[C@H](C)NC(=O)[C@H](NC(=O)[C@H](CCCCN)NC(=O)[C@H](CCSC)NC(=O)[C@@H]3CCCN3C(=O)[C@@H]3CS[C@@H](C)[C@@H](NC(=O)[C@H](CCCCN)NC(=O)[C@@H]4CS[C@@H](C)[C@@H](NC(=O)[C@@H]5CSC[C@@H](NC(=O)/C(=C/C)NC(=O)[C@@H](N)[C@@H](C)CC)C(=O)N[C@@H]([C@@H](C)CC)C(=O)NC(=C)C(=O)N[C@@H](CC(C)C)C(=O)N5)C(=O)N5CCC[C@H]5C(=O)NCC(=O)N4)C(=O)NCC(=O)N[C@@H](C)C(=O)N[C@@H](CC(C)C)C(=O)N[C@@H](CCSC)C(=O)NCC(=O)N3)[C@H](C)SC[C@H](NC2=O)C(=O)N[C@@H](Cc2c[nH]cn2)C(=O)N1)[C@@H](C)CC)C(C)C)C(=O)N[C@@H](CCCCN)C(=O)O [N20P] | 97% | 115% |  | 0.125 µM (≈ 0.417 µg/mL) | 0.0625 µM (≈ 0.209 µg/mL) |  | 0.0625 µM (≈ 0.209 µg/mL) | 0.0156 µM (≈ 0.0521 µg/mL) | 0.0625 µM (≈ 0.209 µg/mL) |  | 0.0156 µM (≈ 0.0521 µg/mL) |  |
